Measurements reported in PubChem BioAssay (NCI).
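Results reflect a 48-hour exposure of cells in 96-well plates to compound at five concentrations. GI50: concentration for 50% inhibition of growth. TGI marks complete inhibition of growth.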

Key:
Test in all cases: growth of human tumour cells (NCI), 48 h
UO-31 renal = test system: UO-31 renal
UACC-257 melanoma = test system: UACC-257 melanoma
U251 CNS = test system: U251 CNS
HL-60(TB) leukemia = test system: HL-60(TB) leukemia
HOP-92 NSCLC = test system: HOP-92 NSCLC
COLO 205 colon = test system: COLO 205 colon
NCI-H226 lung = test system: NCI-H226 lung
OVCAR-4 ovarian = test system: OVCAR-4 ovarian
MALME-3M melanoma = test system: MALME-3M melanoma
MCF7 breast = test system: MCF7 breast
SF-295 CNS = test system: SF-295 CNS
MDA-MB-231 breast = test system: MDA-MB-231 breast
K-562 leukemia = test system: K-562 leukemia
PC-3 prostate = test system: PC-3 prostate
MDA-MB-435 = test system: MDA-MB-435
TK-10 renal = test system: TK-10 renal
CAKI-1 renal = test system: CAKI-1 renal
LOX IMVI melanoma = test system: LOX IMVI melanoma
MOLT-4 leukemia = test system: MOLT-4 leukemia
SK-OV-3 ovarian = test system: SK-OV-3 ovarian
786-0 renal = test system: 786-0 renal
MDA-MB-468 breast = test system: MDA-MB-468 breast
NCI-H522 lung = test system: NCI-H522 lung
HOP-62 NSCLC = test system: HOP-62 NSCLC
NCI-H460 lung = test system: NCI-H460 lung
UACC-62 melanoma = test system: UACC-62 melanoma
SK-MEL-2 melanoma = test system: SK-MEL-2 melanoma
DU-145 prostate = test system: DU-145 prostate
EKVX NSCLC = test system: EKVX NSCLC
ACHN renal = test system: ACHN renal
SK-MEL-28 melanoma = test system: SK-MEL-28 melanoma
RXF 393 renal = test system: RXF 393 renal
HCT-116 colon = test system: HCT-116 colon
CCRF-CEM leukemia = test system: CCRF-CEM leukemia
A498 renal = test system: A498 renal
SF-268 CNS = test system: SF-268 CNS
M14 melanoma = test system: M14 melanoma
HT29 colon = test system: HT29 colon
OVCAR-8 ovarian = test system: OVCAR-8 ovarian
RPMI-8226 leukemia = test system: RPMI-8226 leukemia
SNB-75 CNS = test system: SNB-75 CNS
SN12C renal = test system: SN12C renal
OVCAR-5 ovarian = test system: OVCAR-5 ovarian
SF-539 CNS = test system: SF-539 CNS
HCC-2998 colon = test system: HCC-2998 colon
NCI-H23 lung = test system: NCI-H23 lung
KM12 colon = test system: KM12 colon
HS 578T breast = test system: HS 578T breast
OVCAR-3 ovarian = test system: OVCAR-3 ovarian
SK-MEL-5 melanoma = test system: SK-MEL-5 melanoma
A549 NSCLC = test system: A549 NSCLC
BT-549 breast = test system: BT-549 breast
IGROV1 ovarian = test system: IGROV1 ovarian
SNB-19 CNS = test system: SNB-19 CNS
SW-620 colon = test system: SW-620 colon
NCI/ADR-RES ovarian = test system: NCI/ADR-RES ovarian
T-47D breast = test system: T-47D breast
HCT-15 colon = test system: HCT-15 colon

CN(C)c1nc(NCCNS(=O)(=O)c2ccc(C(=O)/C=C/c3ccc(C(F)(F)F)cc3)cc2)nc(Nc2ccc(F)cc2)n1
GI50 (UO-31 renal): 6.41 µM
TGI (UO-31 renal): 19.9 µM
GI50 (UACC-257 melanoma): 11 µM
TGI (UACC-257 melanoma): 25 µM
GI50 (U251 CNS): 3.42 µM
TGI (U251 CNS): 13 µM
GI50 (HL-60(TB) leukemia): 3.82 µM
TGI (HL-60(TB) leukemia): 30 µM
GI50 (HOP-92 NSCLC): 6.15 µM
TGI (HOP-92 NSCLC): 20.7 µM
GI50 (COLO 205 colon): 11.2 µM
TGI (COLO 205 colon): 24.8 µM
GI50 (NCI-H226 lung): 7.82 µM
TGI (NCI-H226 lung): 24.7 µM
GI50 (OVCAR-4 ovarian): 8.78 µM
TGI (OVCAR-4 ovarian): 23.1 µM
GI50 (MALME-3M melanoma): 14.2 µM
TGI (MALME-3M melanoma): 27.5 µM
GI50 (MCF7 breast): 1.7 µM
TGI (MCF7 breast): 3.56 µM
GI50 (SF-295 CNS): 11.3 µM
TGI (SF-295 CNS): 23.5 µM
GI50 (MDA-MB-231 breast): 8.38 µM
TGI (MDA-MB-231 breast): 20.8 µM
GI50 (K-562 leukemia): 2.98 µM
TGI (K-562 leukemia): 30.4 µM
GI50 (PC-3 prostate): 4.15 µM
TGI (PC-3 prostate): 18.2 µM
GI50 (MDA-MB-435): 2.86 µM
TGI (MDA-MB-435): 8.49 µM
GI50 (TK-10 renal): 17.4 µM
TGI (TK-10 renal): 32 µM
GI50 (CAKI-1 renal): 6.46 µM
TGI (CAKI-1 renal): 19.7 µM
GI50 (LOX IMVI melanoma): 1.86 µM
TGI (LOX IMVI melanoma): 3.84 µM
GI50 (MOLT-4 leukemia): 2.9 µM
TGI (MOLT-4 leukemia): 9.61 µM
GI50 (SK-OV-3 ovarian): 13.7 µM
TGI (SK-OV-3 ovarian): 27.8 µM
GI50 (786-0 renal): 10.6 µM
TGI (786-0 renal): 22.7 µM
GI50 (MDA-MB-468 breast): 4.53 µM
TGI (MDA-MB-468 breast): 17 µM
GI50 (NCI-H522 lung): 11.2 µM
TGI (NCI-H522 lung): 24.7 µM
GI50 (HOP-62 NSCLC): 13.6 µM
TGI (HOP-62 NSCLC): 27.7 µM
GI50 (NCI-H460 lung): 4.09 µM
TGI (NCI-H460 lung): 14.9 µM
GI50 (UACC-62 melanoma): 6.24 µM
TGI (UACC-62 melanoma): 19.4 µM
GI50 (SK-MEL-2 melanoma): 9.45 µM
TGI (SK-MEL-2 melanoma): 22.3 µM
GI50 (DU-145 prostate): 11.2 µM
TGI (DU-145 prostate): 24 µM
GI50 (EKVX NSCLC): 4.2 µM
TGI (EKVX NSCLC): 15.7 µM
GI50 (ACHN renal): 5.08 µM
TGI (ACHN renal): 17.4 µM
GI50 (SK-MEL-28 melanoma): 10.4 µM
TGI (SK-MEL-28 melanoma): 22.2 µM
GI50 (RXF 393 renal): 3.7 µM
TGI (RXF 393 renal): 16 µM
GI50 (HCT-116 colon): 1.68 µM
TGI (HCT-116 colon): 3.13 µM
GI50 (CCRF-CEM leukemia): 3.79 µM
TGI (CCRF-CEM leukemia): > 100 µM
GI50 (A498 renal): 13 µM
TGI (A498 renal): 26.2 µM
GI50 (SF-268 CNS): 7.71 µM
TGI (SF-268 CNS): 22.5 µM
GI50 (M14 melanoma): 3.39 µM
TGI (M14 melanoma): 12.9 µM
GI50 (HT29 colon): 1.91 µM
TGI (HT29 colon): 3.95 µM
GI50 (OVCAR-8 ovarian): 12.3 µM
TGI (OVCAR-8 ovarian): 30.6 µM
GI50 (RPMI-8226 leukemia): 3 µM
TGI (RPMI-8226 leukemia): > 100 µM
GI50 (SNB-75 CNS): 8.41 µM
TGI (SNB-75 CNS): 22.7 µM
GI50 (SN12C renal): 6.36 µM
TGI (SN12C renal): 19.9 µM
GI50 (OVCAR-5 ovarian): 12 µM
TGI (OVCAR-5 ovarian): 24.4 µM
GI50 (SF-539 CNS): 10.7 µM
TGI (SF-539 CNS): 22.5 µM
GI50 (HCC-2998 colon): 1.77 µM
TGI (HCC-2998 colon): 3.61 µM
GI50 (NCI-H23 lung): 11.2 µM
TGI (NCI-H23 lung): 24.2 µM
GI50 (KM12 colon): 2.38 µM
TGI (KM12 colon): 6 µM
GI50 (HS 578T breast): 12.7 µM
TGI (HS 578T breast): 49.5 µM
GI50 (OVCAR-3 ovarian): 2.04 µM
TGI (OVCAR-3 ovarian): 5.61 µM
GI50 (SK-MEL-5 melanoma): 10.4 µM
TGI (SK-MEL-5 melanoma): 22.2 µM
GI50 (A549 NSCLC): 10 µM
TGI (A549 NSCLC): 25.4 µM
GI50 (BT-549 breast): 12.7 µM
TGI (BT-549 breast): 25.6 µM
GI50 (IGROV1 ovarian): 12.3 µM
TGI (IGROV1 ovarian): 24.9 µM
GI50 (SNB-19 CNS): 12 µM
TGI (SNB-19 CNS): 24.3 µM
GI50 (SW-620 colon): 2.24 µM
TGI (SW-620 colon): 5.06 µM
GI50 (NCI/ADR-RES ovarian): 10.7 µM
TGI (NCI/ADR-RES ovarian): 23.7 µM
GI50 (T-47D breast): 5.16 µM
TGI (T-47D breast): 19.6 µM
GI50 (HCT-15 colon): 3.22 µM
TGI (HCT-15 colon): 11.9 µM
